# From publication PMC3469757 (Journal of medicinal chemistry, 2012)
# Key:
# [1] = test system: TRPV1 knockout mice; test: Body temperature in TRPV1 knock-out mice; format: in vivo, mouse; conditions: 1 mg/kg oral
# [2] = test system: CCI-induced cold allodynia in rats; test: Rat Bennett model of neuropathic pain; format: in vivo; conditions: po
# [3] = test system: C57BL/6J wild type mice; test: Body temperature in wild type mice; format: in vivo, mouse; conditions: 1 mg/kg oral, 45 min and 60 min post administration
# [4] = test system: male NMRI mice; test: Capsaicin induced hypothermia in mice; format: in vivo, mouse; conditions: 0.3 mg/kg oral, 15 min before 3 mg/kg ip capsaicin
# [5] = test system: panel of 135 other receptors and enzymes (CEREP); test: Selectivity panel; conditions: 10 µM
# [6] = molecular target: T1, human TRPV1 (Homo sapiens, UniProt Q8NER1); test: pH assay; format: cell-based; conditions: hTRPV1 in CHO cells, versus compound 2
# T1 sequence (Q8NER1 whole entry): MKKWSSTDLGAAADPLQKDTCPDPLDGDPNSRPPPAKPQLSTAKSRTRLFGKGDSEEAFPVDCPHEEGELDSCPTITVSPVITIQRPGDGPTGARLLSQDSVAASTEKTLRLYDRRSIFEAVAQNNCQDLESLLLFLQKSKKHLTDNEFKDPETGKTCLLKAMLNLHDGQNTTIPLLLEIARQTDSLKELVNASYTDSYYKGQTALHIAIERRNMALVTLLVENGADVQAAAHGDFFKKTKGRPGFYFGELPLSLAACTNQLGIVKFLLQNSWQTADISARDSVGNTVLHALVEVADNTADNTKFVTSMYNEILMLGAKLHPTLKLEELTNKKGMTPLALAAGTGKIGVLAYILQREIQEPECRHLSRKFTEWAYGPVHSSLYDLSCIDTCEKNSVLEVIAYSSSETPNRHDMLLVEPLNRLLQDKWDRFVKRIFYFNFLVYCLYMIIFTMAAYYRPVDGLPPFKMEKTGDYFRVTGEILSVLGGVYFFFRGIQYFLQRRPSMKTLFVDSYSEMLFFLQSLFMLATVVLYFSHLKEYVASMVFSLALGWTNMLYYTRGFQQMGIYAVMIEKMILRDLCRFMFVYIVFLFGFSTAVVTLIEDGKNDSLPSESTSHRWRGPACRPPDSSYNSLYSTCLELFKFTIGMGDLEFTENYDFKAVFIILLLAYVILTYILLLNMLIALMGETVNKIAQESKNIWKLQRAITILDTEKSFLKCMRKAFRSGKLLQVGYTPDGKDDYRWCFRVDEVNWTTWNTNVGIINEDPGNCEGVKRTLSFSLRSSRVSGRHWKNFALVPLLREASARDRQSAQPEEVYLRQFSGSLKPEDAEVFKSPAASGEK
# [7] = molecular target: T1, human TRPV1; test: [3H]resiniferatoxin binding; conditions: data not shown
# [8] = molecular target: T1, human TRPV1; test: Capsaicin assay; format: cell-based
smiles,measurement,setting,value
"CC1CCN(c2nc(C(F)(F)F)ccc2CNC(=O)[C@@H](C)c2ccc(NS(C)(=O)=O)c(F)c2)CC1 [Compound 49S, (S)-2-(3-Fluoro-4-(methylsulfonamido)phenyl)-N-((2-(4-methylpiperidin-1-yl)-6-(trifluoromethyl)pyridin-3-yl)methyl)propanamide]",hyperthermic response,[1],completely absent
same,side effects like sedation or decreased locomotion,[2],not observed
same,body temperature increase,[3],about 1.3 ± 0.1 °C
same,effect on capsaicin induced decrease of body temperature,[4],completely inhibited
same,number of targets not negative in selectivity panel,[5],7
same,number of targets with greater than 50% inhibition,[5],3
same,fold better than 2 for pH antagonism,[6],200 fold
same,inhibition of [3H]resiniferatoxin binding to human TRPV1,[7],inhibited
same,fold more potent than 2 over all four TRPV1 activators,"[8]; capsaicin, pH, heat (45°C) and NADA, versus compound 2",140–660 fold
same,fold more potent than lead 3 for capsaicin antagonism,"[8]; hTRPV1 in CHO cells, versus compound 3",~20 fold
